Measurements published in patent US20120302636A1, “METHOD OF TREATING A DISORDER ASSOCIATED WITH MTP” (priority 2009, published 2012).
Like-named read-outs stand apart in the source and are kept apart here.

Legend:
[1] = Example 6: pharmacokinetics; type: in vivo, human
Source text: Originally, the study was planned as 4 sequential cohorts of healthy male Caucasian subjects (Cohorts 1 to 4) followed by a cohort of male Caucasian patients with elevated triglycerides (HTG patients, Cohort 5). An additional cohort of healthy male Caucasian subjects (Cohort 4.1) was enrolled into the study (6 cohorts in total). The cohorts were as follows: Cohorts 1 to 4.1 had healthy Caucasian males, aged 18-45 years with a body weight of 60-100 kg and body mass index (BMI) between 19-28 kg/m^2 at screening and fasting triglycerides less than 1.69 mmol/L (less than 150 mg/dL) at the screening visit and Day-3. Cohort 5 had Caucasian males, aged 18-50 years with a body weight of 60-115 kg and BMI less than 35 kg/m^2 at screening and with elevated fasting triglycerides (TG≧1.69 mmol/L and <5.62 mmol/L; ≧150 mg/dL and <500 mg/dL) at the screening visit and Day-3.
The planned treatment for Cohorts 1 to 4 was twice daily administration of 5 mg, 10 mg or 15 mg the compound of formula (I)/placebo, or once daily administration of 30 mg the compound of formula (1)/placebo. […] As only the compound of formula (I) 5 mg capsules were supplied for this study, doses were administered once daily to determine the maximum tolerated dose, and the planned doses for each subsequent cohort were amended based on the safety and tolerability data obtained from the preceding cohort. The dose level and dosing schedule planned for the patients in Cohort 5 was determined by the maximum tolerated dose and dosing schedule as reported from the planned Cohorts 1 to 4.1.
Twelve healthy male Caucasian subjects were enrolled in each of Cohorts 1 to 4.1; dose cohorts were randomized in a ratio 9:3 to receive the compound of formula (I) or placebo, respectively, at the dose level associated with that cohort. Twelve male Caucasian patients with elevated triglycerides were randomized in a ratio of 8:4 to receive the compound of formula (I) or placebo, respectively, at the maximum tolerated dose level and dosing schedule.

[2] = in vivo
Source text: This example involved a clinical study of the compound of formula (I), which was a randomized, double-blind, placebo-controlled, parallel group study to evaluate the efficacy of the compound of formula (I) administered twice daily for twelve weeks in obese subjects.

[3] = Example 1: plasma and urine concentrations by LC/MS/MS
[4] = Example 7: ascending dose study in obese subjects, pharmacokinetics
Procedure: This example involved a clinical study of the compound of formula (I), which was a randomized, double-blind, placebo-controlled, ascending dose study to evaluate the safety, tolerability and pharmacokinetics/pharmacodynamics of the compound of formula (I) tablets administered twice daily for two weeks in obese subjects.
The subjects were separated into four arms of nine (one with ten) test subjects (which were administered the compound of formula (I)) and three placebo subjects.

MTP = MTP (Homo sapiens, UniProt P55157)
[5] = Example 5: pharmacokinetics; type: in vivo, human
Procedure: Fifty-two Japanese patients with hyperlipidemia (LDL-C between 140 and 220 mg/dL; TG≦400 mg/dL) participated in the study. […] One group received a fixed dose of 2 mg per tablet through the entire study. The other group received escalating doses of 0.5 mg (weeks 1-4), 1 mg (weeks 5-8), and 2 mg (weeks 9-12). For the efficacy analysis, 50 subjects were observed (25 in the fixed-dose group and 25 in the dose escalation group).
The objective of this study was preliminary evaluation of the efficacy (based on serum lipid levels), safety, and pharmacokinetics of the compound of formula (I) administered orally twice daily after breakfast and supper for 12 weeks as a fixed dose (4 mg/day) or escalating dose (1 mg/day, 2 mg/day and 4 mg/day) regimen in patients with hyperlipidemia.

[6] = Example 2: plasma and urine pharmacokinetics; type: in vivo, human
Procedure: Each tablet contained 5 mg (BID), 10 mg (QD), 20 mg (QD), or 30 mg (QD).

[7] = Example 3: pharmacokinetics; type: in vivo, human; conditions: both active groups

Chain of MTP (P55157 19-894, species assumed): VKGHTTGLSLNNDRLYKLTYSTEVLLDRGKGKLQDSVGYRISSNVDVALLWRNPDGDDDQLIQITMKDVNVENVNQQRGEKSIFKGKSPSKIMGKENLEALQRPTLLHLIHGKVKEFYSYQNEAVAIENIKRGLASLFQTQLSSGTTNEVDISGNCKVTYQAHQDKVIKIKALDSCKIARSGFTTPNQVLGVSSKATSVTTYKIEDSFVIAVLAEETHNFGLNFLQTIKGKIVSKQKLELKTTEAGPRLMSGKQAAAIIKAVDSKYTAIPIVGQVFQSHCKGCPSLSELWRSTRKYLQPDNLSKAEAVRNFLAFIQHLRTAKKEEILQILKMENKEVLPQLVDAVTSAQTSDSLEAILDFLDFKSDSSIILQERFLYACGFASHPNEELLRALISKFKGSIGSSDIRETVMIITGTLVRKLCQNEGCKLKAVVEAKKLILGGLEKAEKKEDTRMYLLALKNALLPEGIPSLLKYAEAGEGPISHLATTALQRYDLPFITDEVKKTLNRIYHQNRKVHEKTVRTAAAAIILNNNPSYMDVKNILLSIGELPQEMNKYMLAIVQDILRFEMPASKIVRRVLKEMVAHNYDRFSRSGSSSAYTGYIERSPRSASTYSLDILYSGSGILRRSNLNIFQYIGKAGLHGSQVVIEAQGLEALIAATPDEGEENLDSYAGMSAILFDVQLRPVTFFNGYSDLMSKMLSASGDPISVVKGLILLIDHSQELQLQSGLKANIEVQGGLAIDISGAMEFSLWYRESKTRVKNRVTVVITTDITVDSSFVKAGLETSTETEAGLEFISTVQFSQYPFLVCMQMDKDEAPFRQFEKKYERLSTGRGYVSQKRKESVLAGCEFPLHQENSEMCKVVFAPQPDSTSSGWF
Chain of MTP (P07237 18-508 partner, species assumed): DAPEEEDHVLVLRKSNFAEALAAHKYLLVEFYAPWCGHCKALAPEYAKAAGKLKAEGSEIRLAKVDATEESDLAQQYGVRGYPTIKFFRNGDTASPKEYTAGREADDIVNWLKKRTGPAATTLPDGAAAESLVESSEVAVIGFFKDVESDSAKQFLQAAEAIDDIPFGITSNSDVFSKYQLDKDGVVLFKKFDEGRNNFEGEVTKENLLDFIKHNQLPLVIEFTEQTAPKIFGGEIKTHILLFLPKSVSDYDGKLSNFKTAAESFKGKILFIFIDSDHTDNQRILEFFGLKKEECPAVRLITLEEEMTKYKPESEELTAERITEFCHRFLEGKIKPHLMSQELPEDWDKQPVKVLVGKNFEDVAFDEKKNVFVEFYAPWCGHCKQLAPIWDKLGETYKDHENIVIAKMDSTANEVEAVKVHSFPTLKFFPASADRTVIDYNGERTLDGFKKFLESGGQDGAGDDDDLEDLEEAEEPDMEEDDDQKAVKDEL

SMILES: CN(C)C(=O)c1cc(CC(=O)O)ccc1NC(=O)c1ccccc1-c1ccc(C(F)(F)F)cc1 [metabolite M1, 2-(3-(dimethylcarbamoyl)-4-(4′-(trifluoromethyl)biphenyl-2-ylcarboxamido)phenyl)acetic acid]
- mean apparent terminal half-life ([1]; 5 mg BID, healthy): approximately 27 h
- systemic availability (AUC0-τ and Cmax) in patients vs subjects with normal triglycerides ([1]; 5 mg, Cohort 5 vs Cohort 1): appeared to be greater
- mean apparent terminal half-life ([1]; 5 mg, HTG patients): approximately 30 h
- time to steady-state ([1]; 5 to 20 mg QD and BID, healthy subjects and patients): ~8 days
- extent of systemic exposure, dose proportionality ([1]; 5 to 20 mg QD, healthy): greater than dose-proportional
- urinary recovery up to 72 h post-last dose ([1]; 14 days administration, adjusted for molecular weight): up to 20 % of the total administered dose
- urinary recovery ([1]; first administration): less than 8 % of the administered dose
- mean trough concentration of M1 [2]: increased in a dose-related manner
- mean Cmin ([3]; 5 mg group, Day 2): 8.33 ng/mL
- mean Cmin ([3]; 5 mg group, Day 6): 25.97 ng/mL
- mean Cmin relative to Day 2 ([3]; 5 mg group, Day 6): 3.12 times
- mean Cmin ([3]; 15 mg group, Day 2): 33.57 ng/mL
- mean Cmin ([3]; 15 mg group, Day 8): 181.90 ng/mL
- mean Cmin relative to Day 2 ([3]; 15 mg group, Day 8): 5.42 times
- excretion in urine (metabolite) ([3]; 5 and 15 mg groups): excreted in urine in all subjects
- detection of metabolite in plasma ([3]; all subjects receiving compound): detected in plasma of all subjects
- mean t1/2 ([4]; 1 mg group): 70.1 h
- time to reach steady-state ([4]; 1 and 2.5 mg groups): 7 days
- Cmax and AUC0-τ dose proportionality (M1) ([4]; 1 to 5 mg): dose proportional increase
- time to reach steady-state ([4]; 3.5 and 5 mg groups): 5 days
- MTP inhibitory activity (MTP): no MTP inhibitory activity
- MTP inhibitory activity (MTP; listed as M1): inactive
- mean Cmin ([5]; dose escalation group, Week 10): 12.15 ng/mL
- mean Cmin ([5]; dose escalation group, Week 10, females): 12.06 ng/mL
- mean Cmin ([5]; dose escalation group, Week 10, males): 12.28 ng/mL
- mean Cmin ([5]; dose escalation group, Week 12): 13.47 ng/mL
- mean Cmin ([5]; dose escalation group, Week 12, females): 15.28 ng/mL
- mean Cmin ([5]; dose escalation group, Week 12, males): 10.76 ng/mL
- mean Cmin ([5]; fixed-dose group, Week 10): 12.20 ng/mL
- mean Cmin ([5]; fixed-dose group, Week 12): 10.74 ng/mL
- Cmax and AUC0-24hr dose proportionality (M1) ([6]; 10, 20, 30 mg QD, initial dose Day 1): greater than a dose-proportional
- Cmin of the metabolite M1 ([6]; Day 2 to 14, all groups): quantifiable
- plasma metabolite M1 ([6]; after initial dose on Day 1, all groups): quantifiable
- metabolite M1 in urine ([6]; all groups): excreted in urine
- Cmax and AUC dose proportionality (M1) ([6]; final dose on Day 14): dose-proportional
- plasma metabolite M1 [7]: quantifiable
